Experiments:
hTRPA1 [1] = molecular target: T1, hTRPA1 (Homo sapiens, UniProt O75762); test: Ca2+ imaging (Fura-2 AM) of hTRPA1-expressing Flp-In 293 cells; format: cell-based; conditions: RR 30 µM, HC-030031 100 µM
T1 construct: expressed in transfected cells
Description: Flp-In 293 cell lines stably expressing hTRPA1constructed as previously reported was a gift from the professor […] at University of Tokyo. The hTRPA1-expressing cells were cultured in DMEM containing 10% FBS and 0.02% hygromycin B (Invitrogen). Flp-In 293 cell lines were maintained in DMEM containing 10% FBS. All cells were incubated at 37°C in a humidified atmosphere of 5% CO2. […] Mock-transfected HEK293T cells, hTRPV1-expressing HEK293T cells, non-hTRPA1-expressing Flp-In 293 cells, and hTRPA1-expressing Flp-In 293 cells grown in 96-well black-wall plates were rinsed with assay buffer (130 mM NaCl, 10 mM glucose, 5 mM KCl, 2 […]2, 1.2 mM MgCl2, and 10 mM HEPES, pH 7.4) and loaded with 5 μM Fura-2 AM (Invitrogen) for 30 min at 27°C. The cells were washed with assay buffer and treated with ligands. […] The fluorescence intensities of Fura-2 excited at 340 and 380 nm were simultaneously measured at 510 nm using a computer-controlled filter changer (Lambda DG4; Sutter, San Rafael, CA, USA), an Andor Luca CCD camera (Andor Technology, Belfast, UK), and an inverted fluorescence microscope (IX-71; Olympus, Tokyo, Japan). Intracellular calcium images were recorded every 3-s for 60-s and analyzed using MetaFluor software (Molecular Devices, Sunnyvale, CA, USA).

hTRPA1 [2] = molecular target: T1, hTRPA1; test: Measurement of Ca2+ influx (Fluo-4 AM, FlexStation III) in hTRPA1-expressing cells; format: cell-based; conditions: for block of NGCC activity on hTRPA1-expressing cells (dose-response): RR 30 µM, HC-030031 100 µM; for block of AITC activity on hTRPA1-expressing cells (dose-response): RR 30 µM: below 30 µM AITC, HC-030031 100 µM: below 10 µM AITC
Description: (§1) Flp-In 293 cell lines stably expressing hTRPA1constructed as previously reported was a gift from the professor Takumi Misaka at University of Tokyo. The hTRPA1-expressing cells were cultured in DMEM containing 10% FBS and 0.02% hygromycin B (Invitrogen). Flp-In 293 cell lines were maintained in DMEM containing 10% FBS. All cells were incubated at 37°C in a humidified atmosphere of 5% CO2.
(§2) The ligand-induced changes on cytosolic Ca^2+ level were monitored by a FlexStation III microplate reader (Molecular Devices). Fluo-4 AM (5 µM, Molecular Probes, Eugene, OR, USA) in assay buffer was loaded to the cells in 96-well black-wall plates for 30 min at 27°C. After dye treatment, each chemical was added to each well at 17 s and changes on intracellular Ca^2+ level were monitored by relative fluorescence units (ΔRFU, Ex = 485 nm; Em = 516 nm) for 120 s. […] The responses from at least three wells receiving the same stimulus were averaged. Plots of amplitude versus concentration were fitted using the Hill equation.

hTRPA1 [3] = molecular target: T1, hTRPA1; test: Whole-cell patch clamp recording, cells stably expressing hTRPA1; format: cell-based
Description: as §1
(§3) The whole-cell configuration was used to voltage-clamp at room temperature (22–25°C). Electrodes pulled from glass micropipette capillaries (Sutter Instrument) had resistances of 2–2.5 MΩ, and series resistance errors were compensated >60%. Fast and slow capacitances were compensated before the application of test-pulse. Recordings were performed using aHEKAEPC-10 amplifier with pulse software (HEKA Elektronik). The pipette solution contained: 140 mM KCl, 5 mM MgCl2, 10 mM HEPES, 0.1 mM 1,2-bis(2-aminophenoxy) ethane N,N,N’,N’-tetraacetic acid(BAPTA), 3 mM Na2ATP, and 0.1 mM Na3GTP, adjusted to pH 7.4 with KOH. The external Ringer’s solution used for recording TRPV1 and TRPA1 currents contained: 150 mM NaCl, 5 mM KCl, 1 mM MgCl2, 2 mM EGTA, 10 mM Glucose, and 10 mM HEPES, adjusted to pH 7.4 with NaOH. TRPV1 and TRPA1 currents were recorded by holding the cell at −80 mV. The external Ringer’s solution used for recording ASIC current contained: 160 mM NaCl, 5 mM KCl, 1 mM MgCl2, 2 mM CaCl2, and 10 mM HEPES, adjusted to pH 7.4 with tetramethylammonium hydroxide. For acidic solution of pH 6.0, HEPES was replaced with MES. ASIC currents were recorded by holding the cell at −70 mV. Reagents were obtained as follows: BAPTA, Na2ATP, Na3GTP, EGTA, and tetramethylammonium hydroxide (Sigma), HEPES (Calbiochem), MES (Alfa Aesar), and other chemicals (Merck).

hTRPV1 [4] = molecular target: T2, hTRPV1 (Homo sapiens, UniProt Q8NER1); test: Measurement of Ca2+ influx (Fluo-4 AM, FlexStation III) in hTRPV1-expressing cells; format: cell-based; conditions: RR 30 µM or CPZ 1 µM added with agonist
T2 construct: expressed in transfected cells; host or cells: HEK293T
Description: as §2, with “hTRPV1 was constructed by amplification of the hTRPV1 region (NCBI accession number: NG_029716.1) and cloned into pEAK10 vector (Edge Biosystems, Gaithersburg, MD, USA). The hTRPV1 construct was amplified by PCR and the nucleotide sequence of the hTRPV1 gene was confirmed by sequencing with an ABI 3130 DNA genetic analyzer (Applied Biosystems, Foster City, CA, USA). […] After 6 h, transfected cells were seeded onto 96-well black-wall plate (BD Falcon Labware, Franklin Lakes, NJ, USA) for 18–26 h prior to their use in an experiment. The ligand-induced” for “The ligand-induced”

hTRPV1 [5] = molecular target: T2, hTRPV1; test: Ca2+ imaging (Fura-2 AM) of hTRPV1-expressing HEK293T cells; format: cell-based; conditions: NGCC 30 µM; RR 30 µM, CPZ 1 µM
Description: hTRPV1 was constructed by amplification of the hTRPV1 region (NCBI accession number: NG_029716.1) and cloned into pEAK10 vector (Edge Biosystems, Gaithersburg, MD, USA). The hTRPV1 construct was amplified by PCR and the nucleotide sequence of the hTRPV1 gene was confirmed by sequencing with an ABI 3130 DNA genetic analyzer (Applied Biosystems, Foster City, CA, USA). […] After 6 h, transfected cells were seeded onto 96-well black-wall plate (BD Falcon Labware, Franklin Lakes, NJ, USA) for 18-26 h prior to their use in an experiment. Mock-transfected HEK293T cells, hTRPV1-expressing HEK293T cells, non-hTRPA1-expressing Flp-In 293 cells, and hTRPA1-expressing Flp-In 293 cells grown in 96-well black-wall plates were rinsed with assay buffer (130 mM NaCl, 10 mM glucose, 5 mM KCl, 2 […]2, 1.2 mM MgCl2, and 10 mM HEPES, pH 7.4) and loaded with 5 μM Fura-2 AM (Invitrogen) for 30 min at 27°C. […] The fluorescence intensities of Fura-2 excited at 340 and 380 nm were simultaneously measured at 510 nm using a computer-controlled filter changer (Lambda DG4; Sutter, San Rafael, CA, USA), an Andor Luca CCD camera (Andor Technology, Belfast, UK), and an inverted fluorescence microscope (IX-71; Olympus, Tokyo, Japan). Intracellular calcium images were recorded every 3-s for 60-s and analyzed using MetaFluor software (Molecular Devices, Sunnyvale, CA, USA).

[6] = test system: Bz-insensitive NaCl CT response; set-up: method as in PMID 15146042; conditions: rat CT recordings, cited from earlier work
hTRPV1 [7] = molecular target: T2, hTRPV1; test: Whole-cell patch clamp recording, hTRPV1-expressing HEK293T cells; format: cell-based; conditions: capsaicin 100 nM; NGCC 10^3 µM; holding -80 mV
Description: Mouse ASIC1a (mASIC1a) was a kind gift from John A. Wemmie (University of Iowa, IA, USA). For electrophysiological experiments, HEK293T cells were cultured in DMEM supplemented with 10% FBS and 0.2% penicillin/streptomycin and transiently transfected using Lipofectamine 2000 (Invitrogen) with various cDNAs. For TRPV1 channel expression, cells were transfected with hTRPV1, for ASIC1a homomeric channel expression, cells were transfected with mASIC1a. When needed, 0.1–0.2 µg of cDNA encoding tetrameric red fluorescence protein (DsRed) was co-transfected with the cDNA as a marker for successfully transfected cells. For non-transfected cells, cells were transfected with 0.1–0.2 µg of cDNA encoding DsRed alone. The next day, cells were plated onto poly-L-lysine-coated coverslip chips, and fluorescent cells were studied within 1–2 days.
as §3

T2 sequence (Q8NER1 whole entry): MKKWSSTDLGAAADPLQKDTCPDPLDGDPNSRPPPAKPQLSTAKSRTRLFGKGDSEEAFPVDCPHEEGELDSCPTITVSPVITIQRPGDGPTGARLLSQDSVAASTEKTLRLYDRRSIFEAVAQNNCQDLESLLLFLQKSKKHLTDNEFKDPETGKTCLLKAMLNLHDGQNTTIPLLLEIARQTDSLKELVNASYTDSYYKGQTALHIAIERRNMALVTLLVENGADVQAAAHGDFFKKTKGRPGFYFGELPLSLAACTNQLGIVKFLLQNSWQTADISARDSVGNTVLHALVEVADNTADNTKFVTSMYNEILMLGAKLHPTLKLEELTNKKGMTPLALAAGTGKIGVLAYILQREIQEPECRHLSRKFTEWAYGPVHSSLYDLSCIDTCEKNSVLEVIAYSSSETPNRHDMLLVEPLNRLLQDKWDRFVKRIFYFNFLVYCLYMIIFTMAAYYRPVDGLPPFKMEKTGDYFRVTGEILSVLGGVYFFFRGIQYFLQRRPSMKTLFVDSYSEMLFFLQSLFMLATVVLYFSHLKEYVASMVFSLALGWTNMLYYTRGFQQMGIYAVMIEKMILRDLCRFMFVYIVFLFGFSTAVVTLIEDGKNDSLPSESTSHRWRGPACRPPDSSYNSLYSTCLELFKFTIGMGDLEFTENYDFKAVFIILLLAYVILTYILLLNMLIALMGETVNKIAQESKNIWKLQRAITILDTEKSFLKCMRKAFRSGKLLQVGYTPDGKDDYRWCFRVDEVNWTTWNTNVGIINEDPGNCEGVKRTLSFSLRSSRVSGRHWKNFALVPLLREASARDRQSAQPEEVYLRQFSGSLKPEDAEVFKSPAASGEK
T1 sequence (O75762 whole entry): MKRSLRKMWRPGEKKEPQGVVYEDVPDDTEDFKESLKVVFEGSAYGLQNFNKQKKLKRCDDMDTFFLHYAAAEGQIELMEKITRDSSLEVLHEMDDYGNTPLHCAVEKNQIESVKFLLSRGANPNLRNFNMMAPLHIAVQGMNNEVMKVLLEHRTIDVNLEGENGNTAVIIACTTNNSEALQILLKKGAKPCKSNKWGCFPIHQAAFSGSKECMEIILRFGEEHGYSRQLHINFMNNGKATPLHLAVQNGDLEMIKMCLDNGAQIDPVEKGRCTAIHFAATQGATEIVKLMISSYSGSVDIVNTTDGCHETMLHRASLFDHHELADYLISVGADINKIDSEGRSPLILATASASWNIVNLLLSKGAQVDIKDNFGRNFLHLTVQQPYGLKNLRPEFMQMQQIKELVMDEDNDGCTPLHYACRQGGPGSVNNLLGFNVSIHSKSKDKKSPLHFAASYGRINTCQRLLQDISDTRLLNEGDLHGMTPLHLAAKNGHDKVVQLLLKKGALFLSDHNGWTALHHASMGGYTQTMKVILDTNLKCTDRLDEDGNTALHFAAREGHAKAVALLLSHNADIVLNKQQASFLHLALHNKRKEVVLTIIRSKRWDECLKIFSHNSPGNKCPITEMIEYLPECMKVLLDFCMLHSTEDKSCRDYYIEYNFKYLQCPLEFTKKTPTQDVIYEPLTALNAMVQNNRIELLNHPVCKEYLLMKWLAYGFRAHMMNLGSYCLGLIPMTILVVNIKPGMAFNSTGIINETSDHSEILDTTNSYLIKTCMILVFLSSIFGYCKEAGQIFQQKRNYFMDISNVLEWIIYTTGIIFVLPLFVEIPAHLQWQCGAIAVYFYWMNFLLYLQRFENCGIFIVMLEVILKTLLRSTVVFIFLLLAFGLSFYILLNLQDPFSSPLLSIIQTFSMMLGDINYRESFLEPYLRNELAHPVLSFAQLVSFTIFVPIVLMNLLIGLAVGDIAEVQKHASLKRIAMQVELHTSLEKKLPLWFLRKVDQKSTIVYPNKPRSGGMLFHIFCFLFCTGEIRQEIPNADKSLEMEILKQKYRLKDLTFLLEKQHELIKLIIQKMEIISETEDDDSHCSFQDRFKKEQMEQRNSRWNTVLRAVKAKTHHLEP

inhibition of Ca2+ influx induced by 10 µM AITC and 30 µM NGCC in hTRPA1-expressing cells (hTRPA1 [1])	block of NGCC activity on hTRPA1-expressing cells (dose-response) (hTRPA1 [2])	block of AITC activity on hTRPA1-expressing cells (dose-response) (hTRPA1 [2])	block of NGCC-induced currents in hTRPA1-expressing cells (hTRPA1 [3]; HC-030031 100 µM)	block of AITC-induced current (hTRPA1 [3]; HC-030031 100 µM preincubation 30 seconds, AITC 100 µM)	normalized current density of NGCC-induced current after wash out of HC-030031 (hTRPA1 [3]; n = 4)	normalized current density of NGCC-induced current under HC-030031 (hTRPA1 [3]; n = 4)	block of NGCC-induced Ca2+ influx in hTRPV1-expressing cells (hTRPV1 [5])	inward current in cells expressing hTRPV1 (hTRPV1 [7])	Structure (SMILES)	block of capsaicin- and NGCC-induced hTRPV1 activation (dose-response) (hTRPV1 [4])	effect on the NaCl+Bz CT response at 200 µM ([6]; 200 µM)	concentration giving the maximum increase in the NaCl+Bz CT response [6] [µM]
significantly inhibited	almost blocked NGCC activity	partially blocked AITC activity	almost completely inhibited	partially blocked	1.37±0.07	0.25±0.03			CC(C)c1ccc(NC(=O)Cn2cnc3c2c(=O)n(C)c(=O)n3C)cc1 [HC-030031]			
significantly inhibited	almost blocked NGCC activity	partially blocked AITC activity					blocked NGCC activity to baseline levels		N.N.N.N.N.N.N.N.N.N.N.N.N.N.[Cl-].[Cl-].[Cl-].[Cl-].[Cl-].[Cl-].[O-2].[O-2].[Ru+3].[Ru+3].[Ru+4] [RR, ruthenium red]	inhibited capsaicin- and NGCC-induced hTRPV1 activation, but was less effective than CPZ		
								induced an inward current	COc1cc(CNC(=O)CCCC/C=C/C(C)C)ccc1O [capsaicin, Capsaicin]		completely inhibited	40
